Activity calls are given as the source filed them. No cut-off for these calls is given here.

For data set [1], the system named is HeLa. Kind of data set: Phototoxicity against human HeLa cells assessed as changes in microtubular organization at LD20 concentration incubated 24 hrs under 12 J/cm'2 red light with irradiance of 5 mW/cm'2 by immunofluorescence staining. The format is functional, cell-based.
In data set [2] the test system is HeLa. The data set can be described thus: Cytotoxicity against human HeLa cells assessed as survival fraction at 1x10'-5 M incubated 24 hrs in dark by MTT assay. The conditions noted are these: read-out: Survival. The format is functional.
In data set [3] the test system is HeLa. The data set can be described thus: Phototoxicity against human HeLa cells assessed as survival fraction at 1x10'-7 M incubated 24 hrs under 6 J/cm'2 red light with irradiance of 5 mW/cm'2 by MTT assay. In kind it is functional. The conditions noted are these: light or radiation study, read-out: Survival.
Data set [4] has as its system HeLa. Kind of data set: Cytotoxicity against human HeLa cells assessed as survival fraction at 1x10'-7 M incubated 24 hrs in dark by MTT assay. The format is functional. The conditions noted are these: read-out: Survival.
Data set [5] has as its system HeLa. Kind of data set: Phototoxicity against human HeLa cells assessed as lethality rate at 1x10'-5 M incubated 24 hrs under 3 J/cm'2 red light with irradiance of 5 mW/cm'2 by MTT assay. As to conditions: light or radiation study. The format is functional.
Data set [6] deals with HeLa. The data set can be described thus: Phototoxicity against human HeLa cells assessed as survival fraction at 1x10'-7 M incubated 24 hrs under 3 J/cm'2 red light with irradiance of 5 mW/cm'2 by MTT assay. The format is functional. As to conditions: light or radiation study, read-out: Survival.
Data set [7] deals with HeLa. The data set can be described thus: Phototoxicity against human HeLa cells assessed as survival fraction at 1x10'-5 M incubated 24 hrs under 12 J/cm'2 red light with irradiance of 5 mW/cm'2 by MTT assay. In kind it is functional. The conditions noted are these: light or radiation study, read-out: Survival.
Data set [8] relates to HeLa. Kind of data set: Phototoxicity against human HeLa cells assessed as abnormalities in chromosome disposition in metaphase plate at LD20 concentration incubated 24 hrs under 12 J/cm'2 red light with irradiance of 5 mW/cm'2 by immunofluorescence staining. The format is functional, cell-based.
Data set [9] relates to HeLa. The data set can be described thus: Phototoxicity against human HeLa cells assessed as lethality rate at 1x10'-5 M incubated 24 hrs under 6 J/cm'2 red light with irradiance of 5 mW/cm'2 by MTT assay. The format is functional.
Data set [10] concerns HeLa. Kind of data set: Phototoxicity against human HeLa cells assessed as survival fraction at 1x10'-5 M incubated 24 hrs under 3 J/cm'2 red light with irradiance of 5 mW/cm'2 by MTT assay. In kind it is functional. The conditions noted are these: light or radiation study, read-out: Survival.
Data set [11] concerns HeLa. The data set can be described thus: Drug uptake in human HeLa cells assessed as nucleus at 1x10'-5 M incubated 24 hrs by red emission under fluorescence microscopy. In kind it is ADME, cell-based. As to conditions: 10 µM.
Data set [12] relates to HeLa. Kind of data set: Phototoxicity against human HeLa cells assessed as survival fraction at 1x10'-5 M incubated 24 hrs under 6 J/cm'2 red light with irradiance of 5 mW/cm'2 by MTT assay. The conditions noted are these: light or radiation study, read-out: Survival. In kind it is functional.
For data set [13], the system named is HeLa. Kind of data set: Drug uptake in human HeLa cells assessed as golgi apparatus at 1x10'-5 M incubated 24 hrs by mitotracker green. The conditions noted are these: 10 µM. In kind it is ADME, cell-based.
Data set [14] concerns HeLa. The data set can be described thus: Phototoxicity against human HeLa cells assessed as survival fraction at 1x10'-7 M incubated 24 hrs under 9 J/cm'2 red light with irradiance of 5 mW/cm'2 by MTT assay. The format is functional. The conditions noted are these: light or radiation study, read-out: Survival.
Data set [15] has as its system HeLa. Kind of data set: Phototoxicity against human HeLa cells assessed as survival fraction at 1x10'-5 M incubated 24 hrs under 9 J/cm'2 red light with irradiance of 5 mW/cm'2 by MTT assay. In kind it is functional. The conditions noted are these: light or radiation study, read-out: Survival.
The test system of data set [16] is HeLa. Kind of data set: Phototoxicity against human HeLa cells assessed as survival fraction at 1x10'-4 M incubated 24 hrs under 6 J/cm'2 red light with irradiance of 5 mW/cm'2 by MTT assay. In kind it is functional. As to conditions: light or radiation study, read-out: Survival.
Data set [17] relates to HeLa. The data set can be described thus: Cytotoxicity against human HeLa cells assessed as survival fraction at 1x10'-4 M incubated 24 hrs in dark by MTT assay. The format is functional. The conditions noted are these: read-out: Survival.
Data set [18] relates to HeLa. Kind of data set: Phototoxicity against human HeLa cells assessed as survival fraction at 1x10'-4 M incubated 24 hrs under 12 J/cm'2 red light with irradiance of 5 mW/cm'2 by MTT assay. The format is functional. The conditions noted are these: light or radiation study, read-out: Survival.
The subject of data set [19] is HeLa. Kind of data set: Phototoxicity against human HeLa cells assessed as survival fraction at 1x10'-4 M incubated 24 hrs under 9 J/cm'2 red light with irradiance of 5 mW/cm'2 by MTT assay. The format is functional. As to conditions: light or radiation study, read-out: Survival.
In data set [20] the test system is HeLa. Kind of data set: Phototoxicity against human HeLa cells assessed as changes in microtubular organization at LD70 concentration incubated 24 hrs under 12 J/cm'2 red light with irradiance of 5 mW/cm'2 by immunofluorescence staining. The format is functional, cell-based.
Data set [21] has as its system HeLa. Kind of data set: Phototoxicity against human HeLa cells assessed as abnormalities in chromosome disposition in metaphase plate at LD70 concentration incubated 24 hrs under 12 J/cm'2 red light with irradiance of 5 mW/cm'2 by immunofluorescence staining. The format is functional, cell-based.
For data set [22], the system named is HeLa. The data set can be described thus: Drug uptake in human HeLa cells assessed as located in granules at 1x10'-5 M incubated 24 hrs by red emission under fluorescence microscopy. The format is ADME, cell-based. As to conditions: 10 µM.
In data set [23] the test system is HeLa. Kind of data set: Drug uptake in human HeLa cells assessed as located in cytoplasm at 1x10'-5 M incubated 24 hrs by red emission under fluorescence microscopy. The format is ADME, cell-based. The conditions noted are these: 10 µM.
Data set [24] has as its system HeLa. Kind of data set: Drug uptake in human HeLa cells assessed as lysosomes at 1x10'-5 M incubated 24 hrs by acridine orange staining. The format is ADME, cell-based. The conditions noted are these: 10 µM.
For data set [25], the system named is HeLa. Kind of data set: Drug uptake in human HeLa cells assessed as filamentous pattern of mitochondria at 1x10'-5 M incubated 24 hrs by mitotracker green. In kind it is ADME, cell-based. The conditions noted are these: 10 µM.
In data set [26] the test system is HeLa. Kind of data set: Drug uptake in human HeLa cells assessed as juxtanuclear portion at 1x10'-5 M incubated 24 hrs by ceramide. As to conditions: 10 µM. In kind it is ADME, cell-based.
Data set [27] concerns HeLa. The data set can be described thus: Phototoxicity against human HeLa cells assessed as lethality rate at 1x10'-5 M incubated 24 hrs under 9 J/cm'2 red light with irradiance of 5 mW/cm'2 by MTT assay. In kind it is functional.

As for `OC[C@H]1O[C@@H]2O[C@H]3O[C@H](COc4c(F)c(F)c(-c5c6ccc([nH]6)c(-c6c(F)c(F)c(F)c(F)c6F)c6nc(c(-c7c(F)c(F)c(F)c(F)c7F)c7ccc([nH]7)c7ccc5[nH]7)C=C6)c(F)c4F)[C@@H](O[C@H]4[C@H](O)[C@@H](O)[C@@H](O[C@H]5[C@H](O)[C@@H](O)[C@@H](O[C@H]6[C@H](O)[C@@H](O)[C@@H](O[C@H]7[C@@H](O)[C@@H](O)[C@@H](O[C@H]8[C@H](O)[C@@H](O)[C@@H](O[C@H]1[C@H](O)[C@H]2O)O[C@@H]8CO)O[C@@H]7CO)O[C@@H]6CO)O[C@@H]5CO)O[C@@H]4CO)[C@H](O)[C@H]3O`, the result with HeLa [1] and with HeLa [8] was Active. Further, the viability at 10 µM stood at 162% in the data set on HeLa [2]; 81.6% in the data set on HeLa [7]; 93.6% in the data set on HeLa [10]; 95.6% in the data set with HeLa [12]; 81.6% in the data set on HeLa [15]. The viability at 0.1 µM with HeLa [3] stood at 80.2%; with HeLa [4], 113%; in the data set on HeLa [6], 92%; with HeLa [14], 90.1%. Also, in the data set with HeLa [5], the inhibition at 10 µM amounted to 20%. The Activity in the data set on HeLa [9] came out at 22%. Moreover, the Drug uptake result with HeLa [11] and in the data set on HeLa [13] was “Active” throughout.

In the case of `OC[C@H]1O[C@@H]2O[C@H]3O[C@H](COc4c(F)c(F)c(-c5c6nc(c(-c7c(F)c(F)c(F)c(F)c7F)c7ccc([nH]7)c(-c7c(F)c(F)c(OC[C@H]8O[C@@H]9O[C@H]%10O[C@H](CO)[C@@H](O[C@H]%11O[C@H](CO)[C@@H](O[C@H]%12O[C@H](CO)[C@@H](O[C@H]%13O[C@H](CO)[C@@H](O[C@H]%14O[C@H](CO)[C@@H](O[C@H]%15O[C@H](CO)[C@@H](O[C@H]8[C@H](O)[C@H]9O)[C@H](O)[C@H]%15O)[C@H](O)[C@H]%14O)[C@H](O)[C@H]%13O)[C@@H](O)[C@H]%12O)[C@H](O)[C@H]%11O)[C@H](O)[C@H]%10O)c(F)c7F)c7ccc([nH]7)c7ccc5[nH]7)C=C6)c(F)c4F)[C@@H](O[C@H]4[C@H](O)[C@@H](O)[C@@H](O[C@H]5[C@H](O)[C@@H](O)[C@@H](O[C@H]6[C@H](O)[C@@H](O)[C@@H](O[C@H]7[C@@H](O)[C@@H](O)[C@@H](O[C@H]8[C@H](O)[C@@H](O)[C@@H](O[C@H]1[C@H](O)[C@H]2O)O[C@@H]8CO)O[C@@H]7CO)O[C@@H]6CO)O[C@@H]5CO)O[C@@H]4CO)[C@H](O)[C@H]3O`, the viability at 10 µM with HeLa [2] was 121%; in the data set with HeLa [7], 57.6%; with HeLa [12] it was 121%; in the data set on HeLa [15], 111%. The viability at 100 µM in the data set with HeLa [16] turned out to be 86%; in the data set on HeLa [17], 86%; in the data set on HeLa [18], 57.6%; in the data set with HeLa [19], 85%.

Consider `Fc1c(F)c(F)c(-c2c3nc(c(-c4c(F)c(F)c(F)c(F)c4F)c4ccc([nH]4)c4ccc([nH]4)c(-c4c(F)c(F)c(F)c(F)c4F)c4ccc2[nH]4)C=C3)c(F)c1F`, for which the result in the data set with HeLa [20] and in the data set with HeLa [21] was Active. Moreover, the viability at 10 µM in the data set with HeLa [2] was 108%; with HeLa [7], 38.5%; in the data set on HeLa [10], 104%; in the data set on HeLa [12], 80.9%; in the data set on HeLa [15], 44.5%. Further, the Drug uptake result with HeLa [22], with HeLa [23], in the data set on HeLa [24], in the data set on HeLa [25] and in the data set on HeLa [26] was “Active” each time. In addition, in the data set on HeLa [17], the viability at 100 µM is 117%. The Activity in the data set with HeLa [27] is 70%.

For the origin of these results see ChEMBL document CHEMBL3407372, “Photodynamic effects induced by meso-tris(pentafluorophenyl)corrole and its cyclodextrin conjugates on cytoskeletal components of HeLa cells” (Eur J Med Chem, 2015).
